Measured values as given in EP1169036B1, “ANTI-VIRAL USES OF LEFLUNOMIDE PRODUCTS” (priority 1998, dated 1999).
Where two headings read alike, the source gives them in different places.

Key:
HSV DNA polymerase = target: T1, HSV DNA polymerase (Human herpesvirus 1, UniProt P04293); test: HSV DNA polymerase biochemical assay; conditions: all HSV isolates in VERO cells and HUVEC
T1 construct: a biochemical assay of HSV DNA polymerase activity in HSV-infected cells; endogenous in cells

uninfected cells [1] = test: Cytotoxicity, microscopic reading of uninfected cells in the CPE inhibition test (rhinovirus host cells, not named); assay type: cell-based
Description: (§1) Cytotoxicity of each test compound is also evaluated as follows. In the initial CPE inhibition tests, two wells of uninfected cells treated with each concentration of test compound are run in parallel with the infected, treated wells. When the CPE is determined microscopically, the toxicity control cells are also examined microscopically for any changes in cell appearance compared to normal uninfected, untreated control cells. Changes, which may manifest as enlargement, granularity, ragged edges, filmy appearance, rounding, detachment from the surface of the well, or other changes, are given a designation of T (100% toxic), PVH (partially toxic-very heavy-80%), PH (partially toxic-heavy-60%), P (partially toxic-40%), PS (partially toxic-slight-20%) or 0 (no toxicity-0%) in accordance with the degree of cytotoxicity observed. […] A neutral red IC50 is also determined based on uptake of neutral red dye by the toxicity control cells.

[2] = test system: human lung carcinoma (A549) cells; test: cells; assay type: cell-based; conditions: read-out: Neutral Red Uptake test IC50
uninfected cells [3] = test: Cytotoxicity, neutral red uptake by toxicity control cells (rhinovirus host cells, not named); assay type: cell-based; conditions: read-out: Neutral Red Uptake test IC50
Description: as §1

[4] = test system: African green monkey kidney (MA-104) cells; test: cells; assay type: cell-based; conditions: Chlorocebus sabaeus, MA104, cytotoxic concentration, positive control drug = ribavirin, read-out: CPE Inhibition test IC50
[5] = test system: Madin Darby canine kidney (MDCK) cells; test: cells; assay type: cell-based; conditions: Canis lupus familiaris, cytotoxic concentration, positive control drug = ribavirin, read-out: CPE Inhibition test IC50
CMV strain VHL/E = test: Transmission electron microscopy of virion morphology in CMV-infected HUVEC; assay type: cell-based; conditions: 200 µM A771726, 4-7 days
Description: Transmission electron microscopy.was employed to directly examine virion morphology within A771726-treated or untreated CMV-infected HUVEC. HUVEC monolayers in 6-well culture plates were inoculated with CMV strain VHL/E (1.0 PFU/cell) in the presence or absence of 200 µM A771726 as described above, and incubated for 4-7 days. Cells were harvested by brief trypsin digestion, washed twice in PBS, then fixed by the.addition of 1 ml 2% phosphate buffered gluteraldehyde and again pelleted by centrifugation. Specimens were post-fixed in 1% phosphate buffered osmium tetroxide (1 hour), then dehydrated in graded ethanol washes. Specimens were embedded in Spur low viscosity embedding media (SEM). Blocks were cured for a minimum of 12 hours at 70°C. Thin sections (approximately 100 nm) were cut from cured blocks using an ultramicrotome (LKB Nova), and mounted on 200 mesh copper grids. Grids were heavy metal-stained using a standard two-step uranyl acetate/lead citrate technique, then examined and photographed at 80 kV with a Zeiss EM900 transmission electron microscope by an individual with no knowledge of the nature of the investigation.

[6] = test system: viral immediate early (IE1) or late glycoprotein (gB) mRNA; test: Northern blot of viral mRNA in infected HUVEC; assay type: cell-based, CMV; conditions: 200 µM A771726, 48 hours
Description: Northern blot analysis was employed to determine whether A771726 quantitatively affected transcription of viral immediate early (IE1) or late glycoprotein (gB) mRNA.
HUVEC monolayers in 6-well culture plates were inoculated with CMV strain VHL/E (0.5 PFU/cell) in the presence or absence of 200 µM A771726 and/or 200 µM uridine (6 wells/treatment) as described above, and incubated for 48 hours. […] Total cytoplasmic RNA was isolated from each culture, by 18-hour ultracentrifugation of guanidine isothiocyanate/BME extracts overlayed on cesium chloride cushions. […] 50 ng of full-length IE1 and gB were incubated in a 50 µl PCR reaction including a nucleotide triphosphate mix containing 700 nM α-[^32P]dCTP (Amersham) and either IE1 primers [IE1 sense: 5' […] 3' (SEQ ID NO: 1) and IE1 antisense: 5'[…] 3' (SEQ ID NO: 2)] or gB primers [gB sense: 5 […] 3' (SEQ ID NO: 3) and gB antisense: 5' […] 3' (SEQ ID NO: 4)]. A cDNA probe for GAPDH was radiolabelled using a random priming kit (Decaprime II, Ambion, Inc., Austin TX) as previously described. […] Membranes were hybridized, washed, and bound probe was detected by autoradiography as previously described. Membranes were stripped and reprobed for GAPDH, and scanning densitometry was used to quantitate IE1 and gB band densities, and to normalize these values to those of GAPDH.

[7] = test system: African green monkey kidney (CV-1) cells; test: cells; assay type: cell-based; conditions: Chlorocebus sabaeus, read-out: CPE Inhibition test IC50
HSV = test: Transmission electron microscopy of virion morphology in HSV-infected HUVEC; assay type: cell-based
[8] = test system: African green monkey kidney (MA-104) cells; test: Cytotoxicity, neutral red uptake by toxicity control cells; assay type: cell-based; conditions: Chlorocebus sabaeus, MA104, cytotoxic concentration, positive control drug = ribavirin, read-out: Neutral Red Uptake test IC50
[9] = run with Parainfluenza Type 3 Virus
[10] = run with Respiratory Syncytial Virus A

T1 sequence (P10226 whole entry): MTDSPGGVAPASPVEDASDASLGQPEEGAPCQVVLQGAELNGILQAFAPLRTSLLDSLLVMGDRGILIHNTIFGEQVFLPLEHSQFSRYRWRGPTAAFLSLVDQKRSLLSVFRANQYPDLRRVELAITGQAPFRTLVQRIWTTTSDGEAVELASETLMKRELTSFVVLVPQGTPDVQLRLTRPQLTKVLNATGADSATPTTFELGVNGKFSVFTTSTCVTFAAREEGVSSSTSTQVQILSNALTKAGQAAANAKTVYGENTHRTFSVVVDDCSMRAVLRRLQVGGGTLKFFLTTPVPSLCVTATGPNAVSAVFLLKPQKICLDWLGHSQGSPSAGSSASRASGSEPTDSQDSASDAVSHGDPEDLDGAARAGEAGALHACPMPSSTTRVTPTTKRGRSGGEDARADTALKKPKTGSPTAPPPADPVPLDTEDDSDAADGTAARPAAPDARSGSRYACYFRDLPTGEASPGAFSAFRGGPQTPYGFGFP
T1 sequence (P04293 whole entry): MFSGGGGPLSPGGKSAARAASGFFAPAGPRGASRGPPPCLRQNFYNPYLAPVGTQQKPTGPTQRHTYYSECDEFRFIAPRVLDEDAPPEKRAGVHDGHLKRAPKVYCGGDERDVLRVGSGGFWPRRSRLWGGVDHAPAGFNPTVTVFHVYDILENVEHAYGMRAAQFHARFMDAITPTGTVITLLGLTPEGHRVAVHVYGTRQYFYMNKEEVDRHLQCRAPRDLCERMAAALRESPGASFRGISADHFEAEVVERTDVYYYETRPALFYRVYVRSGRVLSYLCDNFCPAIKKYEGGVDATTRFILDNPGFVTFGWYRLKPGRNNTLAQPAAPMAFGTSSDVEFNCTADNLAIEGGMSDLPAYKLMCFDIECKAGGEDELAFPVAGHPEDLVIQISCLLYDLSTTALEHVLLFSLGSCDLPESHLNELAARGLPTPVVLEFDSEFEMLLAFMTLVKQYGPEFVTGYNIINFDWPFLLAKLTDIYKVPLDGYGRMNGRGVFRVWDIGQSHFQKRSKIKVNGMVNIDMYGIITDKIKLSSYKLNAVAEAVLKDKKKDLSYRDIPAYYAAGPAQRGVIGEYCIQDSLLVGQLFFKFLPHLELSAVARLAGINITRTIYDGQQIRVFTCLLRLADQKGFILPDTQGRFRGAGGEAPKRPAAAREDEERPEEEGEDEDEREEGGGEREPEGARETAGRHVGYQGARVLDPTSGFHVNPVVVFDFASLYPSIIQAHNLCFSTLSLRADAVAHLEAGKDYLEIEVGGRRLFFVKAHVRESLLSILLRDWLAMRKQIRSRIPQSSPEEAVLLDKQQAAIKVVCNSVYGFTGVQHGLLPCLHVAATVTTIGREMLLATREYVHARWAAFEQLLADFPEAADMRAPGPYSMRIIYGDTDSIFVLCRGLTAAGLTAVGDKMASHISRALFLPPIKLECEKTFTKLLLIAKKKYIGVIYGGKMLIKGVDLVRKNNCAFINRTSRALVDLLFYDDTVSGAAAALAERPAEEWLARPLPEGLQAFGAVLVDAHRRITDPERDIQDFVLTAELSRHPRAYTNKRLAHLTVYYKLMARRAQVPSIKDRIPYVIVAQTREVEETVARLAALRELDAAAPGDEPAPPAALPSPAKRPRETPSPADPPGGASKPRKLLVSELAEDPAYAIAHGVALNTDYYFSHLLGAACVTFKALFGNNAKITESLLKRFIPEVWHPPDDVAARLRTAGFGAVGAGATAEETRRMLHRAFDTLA

C/C(O)=C(\C#N)C(=O)Nc1ccc(C(F)(F)F)cc1 [Compound A771726, N-(4-trifluoromethylphenyl)-2-cyano-3-hydroxycrotonamide]
HSV DNA polymerase activity (HSV DNA polymerase): no detectable inhibitory effect | IC50 (uninfected cells [1]): 1000 µM | IC50 [2]: 580 µM | IC50 (uninfected cells [3]): 500 µM | IC50 [4, 9]: 30 µM | IC50 [4, 10]: 20 µM | IC50 ([5]; run with Influenza A (H1N1)): 29 µM | IC50 ([5]; run with Influenza A (H3N2)): 30 µM | IC50 ([5]; run with Influenza B): 50 µM | virion morphology in the cytoplasm (CMV strain VHL/E): viral particles appeared not to have matured far beyond the 100 nM naked capsid stage | transcription of IE1 or gB genes [6]: no inhibitory effect | IC50 [7]: > 660 µM | virion morphology, tegument acquisition (HSV): appear not to acquire tegument | IC50 [8, 9]: 50 µM | IC50 [8, 10]: 143 µM
